SMILES strings stand for the structures. pKi: −log10 of the molar value.

Usually pKi stands for −log10 of the Ki, conventionally taken in molar units. Higher therefore signals a small Ki.

The target in the assay is T1, Orexin/Hypocretin receptor type 1 (Rattus norvegicus, UniProt P56718).
T1 sequence (P56718 whole entry): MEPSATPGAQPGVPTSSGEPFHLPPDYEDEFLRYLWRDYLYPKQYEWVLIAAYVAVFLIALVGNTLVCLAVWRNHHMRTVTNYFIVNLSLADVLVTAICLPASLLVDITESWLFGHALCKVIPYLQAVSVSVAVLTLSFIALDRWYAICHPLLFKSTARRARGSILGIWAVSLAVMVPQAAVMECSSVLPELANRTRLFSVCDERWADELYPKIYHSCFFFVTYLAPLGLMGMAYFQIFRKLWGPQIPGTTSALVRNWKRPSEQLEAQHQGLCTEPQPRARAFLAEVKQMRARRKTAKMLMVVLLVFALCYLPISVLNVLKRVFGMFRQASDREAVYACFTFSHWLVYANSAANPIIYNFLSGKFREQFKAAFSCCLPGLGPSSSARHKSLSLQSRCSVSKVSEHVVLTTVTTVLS
In words: Radioligand Binding Assay: Compound potency can be assessed by a radioligand binding assay (described in Bergman et. al. Bioorg. Med. Chem. Lett. 2008, 18, 1425-1430) in which the inhibition constant (Ki) is determined in membranes prepared from CHO cells expressing either the orexin-1 (OX1) or orexin-2 (OX2) receptor. It is filed as cell membranes.
`C[C@@H]1CC[C@@H](Oc2ccnc3c(F)cccc23)CN1C(=O)c1ccccc1-n1nccn1` showed a pKi of 6.25.

`Cc1ccc(-n2nccn2)c(C(=O)N2C[C@H](Nc3nccc4ccccc34)CC[C@H]2C)c1`: the pKi was 8.49.

With `C[C@@H]1CC[C@@H](Oc2cccc3ocnc23)CN1C(=O)c1ccccc1-n1nccn1`, the pKi was 5.89.

The values are drawn from ChEMBL document CHEMBL3639213, “2,5-disubstituted piperidine orexin receptor antagonists” (2014).
